Experimental data published in patent publication US6410790B1, “3-amin3-arylpropan-1-ol compounds, their preparation and use” (priority 1999, dated 2002).

Legend:
[1] = system: phenylquinone-induced writhing reaction; experiment: phenylquinone-induced writhing test in mice; type: in vivo; conditions: male NMRI mice, phenylquinone i.p. 10 minutes later; for inhibition in vivo at 10 mg/kg: Mus musculus, iv, 10 min, 10 mg/kg intravenously
Experimental: Analgesic Effect in the Writhing Test in Mice
The analgesic effect was investigated in the phenylquinone-induced writhing test in mice (as modified by I. C. Hendershot and J. Forsaith (1959) J. Pharmacol. Exp. Ther. 125, 237-240). Male NMRI mice weighing 25 to 30 g were used for the test. Groups of 10 animals each received by intraperitoineal application, for each substance dose, 0.3 ml/mouse of a 0.02% aqueous solution of phenylquinone (phenylbenzoquinone, Sigma Company, Deisenhofen; solution prepared with addition of 5% of ethanol and kept in a water bath at 45° C.) 10 minutes after intravenous administration of the test substances. The animals were placed individually in observation cages. The number of pain-induced stretching movements (so-called writhing reactions=straightening of the body together with stretching of the rear extremities) was measured by means of a push-button counter 5 to 20 minutes after administration of the phenylquinone. Animals that had received only physiological saline solution served as controls. All substances were tested in the standard dose of 10 mg/kg. The percentage inhibition (% inhibition) of the writhing reaction produced by a substance was calculated according to the following formula: [formula]

NA transporter = target: T1, NA transporter (Rattus norvegicus, UniProt Q63380); experiment: synaptosomal noradrenaline uptake inhibition (NA uptake inhibition); type: biochemical; conditions: for inhibition at 1 µM: read-out: NA Uptake Inhibition at 1 μM, 1 μM in the assay, synaptosomes from rat hypothalamus; for NA Uptake Inhibition at 1 μM: 1 μM in the assay, synaptosomes from rat hypothalamus
T1 construct: synaptosomes are isolated fresh from rat brains; from tissue; host or cells: rat hypothalamus synaptosomes (P2 fraction)
T1 sequence (Q63380 1-617): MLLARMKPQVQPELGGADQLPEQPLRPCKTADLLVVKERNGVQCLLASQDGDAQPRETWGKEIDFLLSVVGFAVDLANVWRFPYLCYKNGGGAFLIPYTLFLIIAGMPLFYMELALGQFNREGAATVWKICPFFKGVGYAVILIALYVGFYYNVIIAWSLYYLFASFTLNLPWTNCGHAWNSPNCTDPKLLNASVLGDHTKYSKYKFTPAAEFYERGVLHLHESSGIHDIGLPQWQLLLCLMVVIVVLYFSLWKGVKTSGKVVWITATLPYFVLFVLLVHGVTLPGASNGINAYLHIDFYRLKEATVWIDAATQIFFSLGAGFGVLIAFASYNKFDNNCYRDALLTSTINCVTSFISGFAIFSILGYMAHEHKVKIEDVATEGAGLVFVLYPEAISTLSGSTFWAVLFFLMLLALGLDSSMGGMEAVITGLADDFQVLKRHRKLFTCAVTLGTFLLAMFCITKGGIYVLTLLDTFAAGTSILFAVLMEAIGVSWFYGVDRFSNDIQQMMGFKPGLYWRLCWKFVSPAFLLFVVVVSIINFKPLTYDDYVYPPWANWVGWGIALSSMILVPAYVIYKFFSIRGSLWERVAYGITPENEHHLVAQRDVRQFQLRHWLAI
Experimental: In order to carry out these in vitro studies, synaptosomes are isolated fresh from rat brains. In each case a so-called “P2” fraction is used, which is prepared according to the protocol of Gray and Whittaker (E. G. Gray and V. P. Whittaker (1962) J. Anat. 76, 79-88).
(in each case N=4, i.e. mean values±SEM from 4 independent series of experiments that were carried out in the form of triple parallel experiments).
(§1) For this purpose IC50 values are obtained, which can be converted to inhibitor constants (Ki) according to the “Cheng-Prusoff equation” (Y. C. Clieng and W. H. Prusoff (1973) Biochem. Pharmacol. 22, 3099-3108). The IC50 values were obtained by means of the computer program “Figure P” (version 6.0, Biosoft, Cambridge, England). Km values were calculated according to Lineweaver and Burk (H. Lineweaver and D. Burk (1934) J. Am. Chem. Soc. 56, 658-666). The “Ligand” computer program (version 4, Biosoft, England) was used to obtain Ken values.

[2] = system: benzothiazepine binding site of the L-type calcium channel; experiment: Diltiazem binding, L calcium channel; design: species or system rat; conditions: for Diltiazem Binding at 10 μM: percentage inhibition, [3H]-cis-(+)-diltiazem 5 nM, rat cerebral cortex membranes
Experimental: Binding Investigations in the L Calcium Channel
Benzothiazepine Binding Site (Diltiazem Binding)
The biological membrane material was isolated from the rat cerebral cortex. [^3H]-cis-(+)-diltiazem (5 nM in the assay) was used as ligand. The material was incubated for 20 minutes at 25° C. The radioactivity that is measured in the presence of (±)-diltiazem (10^−6 M in the assay) is defined as non-specific binding. After completion of incubation the non-bound fraction of the radioactive ligand is separated by means of a filtration process using Whatman Glasfiber GF/B membranes. The membranes are washed and the radioactivity is then measured using a β-counter. The method is based on the details published by Schoemaker and Langer (H. Schoemaker and S. Z. Langer (1985) Eur. J. Pharmacol. 111, 273-277).
as §1

[3] = system: binding site 2 of the sodium channel; experiment: BTX binding, sodium channel; conditions: rat cerebral cortex synaptosomes; for BTX Binding at 10 μM: percentage inhibition, [3H]-batrachotoxin A20 α-benzoate 10 nM
Experimental: Binding Investigations in the Sodium Channel
Binding Site 2 (BTX Binding)
The binding site 2 of the sodium channel is the so-called batrachotoxin (BTX) binding site. [^3H]-batrachlotoxin A20 α-benzoate (10 nM in the assay) was used as ligand. These ion channel particles (synaptosomes) were concentrated from rat cerebral cortex according to the procedure of Gray and Whittaker (E. G. Gray and V. P. Whittaker (1962) J. Anat. 76, 79-88). The radioactivity that is measured in the presence of veratridine (0.3 mM in the assay) is defined as non-specific binding. The material was incubated at 37° C. for 120 minutes. The assay conditions are carried out according to the protocol published by Pauwels, Leysen and Laduron (P. J. Pauwels, J. E. Leysen and P. M. Laduron (1986) Eur. J. Pharmacol. 124, 291-298).
(N=3, i.e. mean values±SEM from 3 independent series of experiments that were carried out in the form of triple parallel experiments).
as §1

Row | Compound | inhibition in vivo at 10 mg/kg [1] [%] | inhibition at 1 µM (NA transporter) [%] | Diltiazem Binding at 10 μM [2] [%] | BTX Binding at 10 μM [3] [%] | % Inhibition of the writhing reaction at 10 mg/kg intravenously [1] [%] | NA Uptake Inhibition at 1 μM (NA transporter) [%] | Kd ([2]; radioligand, rat cerebral cortex, N=3, mean±SEM, read-out: KD value for this high-affinity binding site) [µM] | Kd ([3]; radioligand, N=3, mean±SEM, read-out: KD value for this binding site) [µM]
1 | CSc1ccccc1C1(O)CCCCC1C(c1ccccc1)N(C)C.Cl (centres unmarked) [Example 75, 2-(dimethylaminophenylmethyl)-1-(2-methylsulfanylphenyl)cyclohexanol, hydrochloride] | 57 | 0 | 89 | 93 | – | – | – | –
2 | CN(C)C(c1cccc(Oc2ccccc2)c1)C1CCCCC1(O)Cc1cccc(C(F)(F)F)c1.Cl (centres unmarked) [Example 53, 2-[dimethylamino-(3-phenoxyphenyl)methyl]-1-(3-trifluoromethylbenzyl)cyclohexanol, hydrochloride] | 90 | 49 | 92 | 97 | – | – | – | –
3 | CN(C)C(c1ccccc1)C1CCCCC1(O)Cc1ccc(F)cc1.Cl (centres unmarked) [Example 25, 2-(dimethylaminophenylmethyl)-1-(4-fluorobenzyl)cyclohexanol, hydrochloride] | 100 | 98 | 85 | 91 | – | – | – | –
4 | CN(C)C(c1ccc(C#N)cc1)C1CCCCC1(O)c1ccc(C(F)(F)F)cc1.Cl (centres unmarked) [Example 65, 4-{dimethylamino-[2-hydroxy-2-(4-trifluoromethylphenyl)cyclohexyl]methyl}benzonitrile, hydrochloride] | 76 | 0 | 72 | 78 | – | – | – | –
5 | CN(C)C(c1ccccc1)C1CCCCC1(O)Cc1cc(F)ccc1F.Cl (centres unmarked) [Example 54, 1-(2,5-difluorobenzyl)-2-(dimethylaminophenylmethyl)cyclohexanol, hydrochloride] | 98 | 96 | 76 | 98 | – | – | – | –
6 | CN(C)C(c1ccc(F)cc1)C1CCCCC1(O)Cc1cccc(C(F)(F)F)c1.Cl (centres unmarked) [Example 47, 2-[dimethylamino-(4-fluorophenyl)methyl]-1-(3-trifluoromethylbenzyl)cyclohexanol, hydrochloride] | 89 | 100 | 84 | 100 | – | – | – | –
7 | COc1ccc(OC)c(C2(O)CCCCC2C(c2ccccc2)N(C)C)c1.Cl (centres unmarked) [Example 26, 1-(2,5-dimethoxyphenyl)-2-(dimethylaminophenylmethyl)cyclohexanol, hydrochloride] | 94 | 5 | 87 | 85 | – | – | – | –
8 | Cc1ccccc1C(C1CCCCC1(O)Cc1ccccc1)N(C)C.Cl (centres unmarked) [Example 67, 1-benzyl-2-(dimethylamino-o-tolylmethyl)cyclohexanol, hydrochloride] | 84 | 83 | 98 | 97 | – | – | – | –
9 | CN(C)C(c1ccc(Cl)cc1)C1CCCCC1(O)Cc1ccccc1.Cl (centres unmarked) [Example 58, 1-benzyl-2-[(4-chlorophenyl)dimethylaminomethyl]cyclohexanol, hydrochloride] | 98 | 0 | 80 | 100 | – | – | – | –
10 | CN(C)C(c1ccccc1)C1CCCCC1(O)Cc1ccc(Cl)cc1Cl.Cl (centres unmarked) [Example 33, 1-(2,4-dichlorobenzyl)-2-(dimethylaminophenylmethyl)cyclohexanol, hydrochloride] | 84 | 83 | 86 | 98 | – | – | – | –
11 | CN(C)C(c1ccccc1)C1CCCCC1(O)c1cccc2ccccc12.Cl (centres unmarked) [Example 74, 2-(dimethylaminophenylmethyl)-1-naphthalene-1-ylcyclohexanol, hydrochloride] | 37 | 24 | 83 | 93 | – | – | – | –
12 | CN(C)C(c1cccc(Oc2ccccc2)c1)C1CCCCC1(O)CCc1ccccc1.Cl (centres unmarked) [Example 52, 2-[dimethylamino-(3-phenoxyphenyl)methyl]-1-phenethylcyclohexanol, hydrochloride] | 70 | 38 | 98 | 99 | – | – | – | –
13 | CN(C)C(c1ccccc1Cl)C1CCCCC1(O)CCc1ccc(F)cc1.Cl (centres unmarked) [Example 69, 2-[(2-chlorophenyl)dimethylaminomethyl]-1-[2-(4-fluorophenyl)ethyl]cyclohexanol, hydrochloride] | 45 | 76 | 93 | 96 | – | – | – | –
14 | CN(C)C(c1ccccc1)C1CCCCC1(O)CCCc1ccccc1.Cl (centres unmarked) [Example 68, 2-(dimethylaminophenylmethyl)-1-(3-phenylpropyl)cyclohexanol, hydrochloride] | 55 | 49 | 88 | 98 | – | – | – | –
15 | CN(C)C(c1cccs1)C1CCCCC1(O)Cc1cccc(C(F)(F)F)c1.Cl (centres unmarked) [Example 70, 2-[dimethylaminothiophen-2-ylmethyl]-1-(3-trifluoromethylbenzyl)cyclohexanol, hydrochloride] | – | – | 91 | 93 | 98 | 74 | – | –
16 | CN(C)C(c1ccccc1)C1CCCCC1(O)Cc1ccccc1Cl.Cl (centres unmarked) [Example 30, 1-(2-chlorobenzyl)-2-(dimethylaminophenylmetlhyl)cyclohexanol, hydrochloride] | – | – | 98 | 96 | 85 | 98 | – | –
17 | COc1cccc(CC2(O)CCCCC2C(c2cccc(OC)c2)N(C)C)c1.Cl (centres unmarked) [Example 37, 2-(dimethylamino-(3-methoxyphenyl)methyl]-1-(3-methoxybenzyl)cyclohexanol, hydrochloride] | 93 | 100 | 94 | 90 | – | – | – | –
18 | CN(C)C(c1ccccc1)C1CCCCC1(O)Cc1ccc(F)cc1Cl.Cl (centres unmarked) [Example 27, 1-(2-chloro-4-fluorobenzyl)-2-(dimethylaminophenylmethyl)cyclohexanol, hydrochloride] | 82 | 89 | 96 | 97 | – | – | – | –
19 | [^3H]-cis-(+)-diltiazem [reference compound] | – | – | – | – | – | – | 0.0041 ± 0.00075 | –
20 | CN(C)C(c1ccccc1)C1CCCCC1(O)Cc1cccc(C(F)(F)F)c1.Cl (centres unmarked) [Example 36, 2-(dimethylaminophenylmethyl)-1-(3-trifluoromethylbenzyl)cyclohexanol, hydrochloride] | 100 | 91 | – | 98 | – | – | – | –
21 | [^3H]-batrachlotoxin A20 α-benzoate [reference compound] | – | – | – | – | – | – | – | 0.0246 ± 0.00156
